Format in all cases: in vivo
For assay [1], the system named is Amaranthus retroflexus (AMARE). The assay can be described thus: Post-emergence herbicidal efficacy at 80 g/ha, greenhouse pot test. Particulars: visual rating vs untreated control after about 3 weeks. In a few lines:
(§1)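 Visual rating of activity versus untreated plants after about 3 greenhouse weeks, 0% meaning control-like and 100% meaning dead. Plants in sandy loam were sprayed at one-leaf stage (2–3 weeks post-sowing) with WP/EC compound suspensions or emulsions, 0.5% additive, 600 l/ha water.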

Assay [2] deals with Alopecurus myosuroides (ALOMY). The description is as above. The conditions noted are these: visual rating vs untreated control after about 3 weeks. In a few lines:
as §1

The subject of assay [3] is Polygonum convolvulus (POLCO). The assay is described as above. The conditions noted are these: visual rating vs untreated control after about 3 weeks. In a few lines:
as §1

Assay [4] has as its system Viola tricolor (VIOTR). The description is as above. Particulars: visual rating vs untreated control after about 3 weeks. A digest of the protocol:
as §1

For assay [5], the system named is Veronica persica (VERPE). Described as above. Particulars: visual rating vs untreated control after about 3 weeks. A digest of the protocol: as §1
Assay [6] has as its system Setaria viridis (SETVI). The assay can be described thus: Pre-emergence herbicide efficacy at 80 g/ha, greenhouse pot test. The conditions noted are these: visual scoring vs untreated control after about 3 weeks. A digest of the protocol:
(§2)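 Seeds were sown in pots and covered with soil, then the compound (WP or EC formulation) was sprayed onto the soil surface as an aqueous suspension or emulsion with 0.5% additive. Pots were kept in a greenhouse, and after about 3 weeks activity was scored visually versus untreated controls (100% = plants dead, 0% = like control).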

In assay [7] the test system is Amaranthus retroflexus (AMARE). Described as above. Particulars: visual scoring vs untreated control after about 3 weeks. In a few lines: as §2
In assay [8] the test system is Alopecurus myosuroides (ALOMY). Described as above. The conditions noted are these: visual scoring vs untreated control after about 3 weeks. A digest of the protocol:
as §2

The test system of assay [9] is Digitaria sanguinalis (DIGSA). The assay is described as above. Particulars: visual scoring vs untreated control after about 3 weeks. In a few lines:
as §2

For assay [10], the system named is Matricaria inodora (MATIN). The description is as above. The conditions noted are these: visual scoring vs untreated control after about 3 weeks. In a few lines:
as §2

Assay [11] has as its system Polygonum convolvulus (POLCO). The description is as above. The conditions noted are these: visual scoring vs untreated control after about 3 weeks. A digest of the protocol:
as §2

Assay [12] relates to Viola tricolor (VIOTR). Described as above. The conditions noted are these: visual scoring vs untreated control after about 3 weeks. In a few lines:
as §2

Assay [13] relates to Avena fatua (AVEFA). The assay is described as above. Particulars: visual scoring vs untreated control after about 3 weeks. In a few lines:
as §2

The subject of assay [14] is Ipomoea purpurea (PHBPU). The assay is described as above. The conditions noted are these: visual scoring vs untreated control after about 3 weeks. A digest of the protocol:
as §2

In assay [15] the test system is Veronica persica (VERPE). The assay is described as above. The conditions noted are these: visual scoring vs untreated control after about 3 weeks. In a few lines:
as §2

Assay [16] concerns Abutilon theophrasti (ABUTH). Described as above. Particulars: visual scoring vs untreated control after about 3 weeks. In a few lines:
as §2

For assay [17], the system named is Setaria viridis (SETVI). The experiment in a line: Pre-emergence herbicide efficacy at 320 g/ha, greenhouse pot test. The conditions noted are these: visual scoring vs untreated control after about 3 weeks. In a few lines:
(§3)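 Weed seeds were sown in sandy loam in pots, one mono- or dicot species per pot, and covered with soil. WP or EC formulations were sprayed onto the soil surface as aqueous suspension or emulsion with 0.5% additive at 600 L/ha water. Visual scoring after about 3 weeks, % activity versus untreated controls.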

Assay [18] relates to Poa annua (POAAN). Described as above. Particulars: visual scoring vs untreated control after about 3 weeks. A digest of the protocol: as §3
The test system of assay [19] is Amaranthus retroflexus (AMARE). Described as above. Particulars: visual scoring vs untreated control after about 3 weeks. A digest of the protocol:
as §3

The subject of assay [20] is Alopecurus myosuroides (ALOMY). Described as above. The conditions noted are these: visual scoring vs untreated control after about 3 weeks. In a few lines: as §3
In assay [21] the test system is Echinochloa crus-galli (ECHCG). The description is as above. Particulars: visual scoring vs untreated control after about 3 weeks. A digest of the protocol: as §3
In assay [22] the test system is Matricaria inodora (MATIN). Described as above. Particulars: visual scoring vs untreated control after about 3 weeks. A digest of the protocol:
as §3

The subject of assay [23] is Bassia scoparia (KCHSC). The description is as above. The conditions noted are these: dosage 1280 g/ha in Table C6, visual scoring after about 3 weeks. A digest of the protocol:
as §3

The test system of assay [24] is Stellaria media (STEME). Described as above. The conditions noted are these: visual scoring vs untreated control after about 3 weeks. A digest of the protocol: as §3
Assay [25] concerns Veronica persica (VERPE). The assay is described as above. The conditions noted are these: visual scoring vs untreated control after about 3 weeks. A digest of the protocol: as §3
Assay [26] concerns Abutilon theophrasti (ABUTH). The assay is described as above. The conditions noted are these: visual scoring vs untreated control after about 3 weeks. In a few lines: as §3
Assay [27] has as its system Setaria viridis (SETVI). The experiment in a line: Post-emergence herbicidal efficacy at 320 g/ha, greenhouse pot test. Particulars: visual rating vs untreated control after about 3 weeks. In a few lines: (§4)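 Visual percent activity (0% = like control, 100% = plants dead) is scored about 3 weeks after treatment, relative to untreated plants. Compounds go on as wettable powder or emulsion concentrate with 0.5% additive at 600 liters per hectare water, at the one-leaf stage.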

The test system of assay [28] is Poa annua (POAAN). Described as above. Particulars: visual rating vs untreated control after about 3 weeks. A digest of the protocol:
as §4

For assay [29], the system named is Amaranthus retroflexus (AMARE). Described as above. Particulars: visual rating vs untreated control after about 3 weeks. In a few lines:
as §4

Assay [30] deals with Lolium rigidum (LOLRI). Described as above. Particulars: visual rating vs untreated control after about 3 weeks. In a few lines: as §4
Assay [31] deals with Bassia scoparia (KCHSC). The description is as above. The conditions noted are these: visual rating vs untreated control after about 3 weeks. A digest of the protocol: as §4
Assay [32] relates to Stellaria media (STEME). The description is as above. The conditions noted are these: visual rating vs untreated control after about 3 weeks. In a few lines:
as §4

The test system of assay [33] is Veronica persica (VERPE). Described as above. The conditions noted are these: 320 g/ha, visual rating vs untreated control after about 3 weeks. In a few lines:
as §4

Assay [34] relates to Abutilon theophrasti (ABUTH). The description is as above. The conditions noted are these: visual rating vs untreated control after about 3 weeks. In a few lines:
as §4

With `Cc1cc(C)c(-c2cc(C(F)F)no2)c(Oc2ncc(F)cn2)n1` [Example I-4], the “Post-emergence efficacy against Amaranthus retroflexus (AMARE)” value in assay [1] was 100%. For the same compound, the “Post-emergence efficacy against Alopecurus myosuroides (ALOMY)” value in assay [2] amounted to 90%. The “Post-emergence efficacy against Polygonum convolvulus (POLCO)” value in [3] was 90%. Besides, the “Post-emergence efficacy against Viola tricolor (VIOTR)” value in [4] is listed as 80%. In [5], the “Post-emergence efficacy against Veronica persica (VERPE)” value came to 90%. The “Pre-emergence efficacy against Setaria viridis (SETVI)” value in [6] turned out to be 100%. Besides, the “Pre-emergence efficacy against Amaranthus retroflexus (AMARE)” value in assay [7] was 100%. The “Pre-emergence efficacy against Alopecurus myosuroides (ALOMY)” value in assay [8] is 90%. Further, the “Pre-emergence efficacy against Digitaria sanguinalis (DIGSA)” value in [9] is listed as 100%. The “Pre-emergence efficacy against Matricaria inodora (MATIN)” value in assay [10] came to 90%. Further, the “Pre-emergence efficacy against Polygonum convolvulus (POLCO)” value in assay [11] came to 90%. In assay [12], the “Pre-emergence efficacy against Viola tricolor (VIOTR)” value is given as 100%. Besides, in assay [13], the “Pre-emergence efficacy against Avena fatua (AVEFA)” value worked out at 80%. Moreover, the “Pre-emergence efficacy against Ipomoea purpurea (PHBPU)” value in [14] is on record as 80%. Further, in assay [15], the “Pre-emergence efficacy against Veronica persica (VERPE)” value is on record as 100%. In addition, the “Pre-emergence efficacy against Abutilon theophrasti (ABUTH)” value in assay [16] stood at 100%.

With `Cc1cc(C)c(-c2cc(C(F)F)no2)c(Oc2ncc(Br)cn2)n1` [Example I-41], the “Pre-emergence efficacy against Setaria viridis (SETVI)” value in assay [17] turned out to be 100%; in [6] it was 80%. Besides, in [18], the “Pre-emergence efficacy against Poa annua (POAAN)” value was 100%. The “Pre-emergence efficacy against Amaranthus retroflexus (AMARE)” value in assay [19] and in assay [7] was 100% each time. Further, the figures for the “Pre-emergence efficacy against Alopecurus myosuroides (ALOMY)” value in [20] and in assay [8] were 90% and 80%, respectively. Further, the “Pre-emergence efficacy against Echinochloa crus-galli (ECHCG)” value in [21] worked out at 90%. The “Pre-emergence efficacy against Matricaria inodora (MATIN)” value in assay [22] is on record as 100%; in [10] it was 80%. The “Pre-emergence efficacy against Bassia scoparia (KCHSC)” value in assay [23] turned out to be 100%. The “Pre-emergence efficacy against Stellaria media (STEME)” value in assay [24] worked out at 100%. In addition, the “Pre-emergence efficacy against Veronica persica (VERPE)” value in assay [25] turned out to be 100%; in [15], 80%. Further, the “Pre-emergence efficacy against Abutilon theophrasti (ABUTH)” value was determined as 100% in assay [26] and 80% in assay [16]. For the same compound, in assay [27], the “Post-emergence efficacy against Setaria viridis (SETVI)” value was found to be 90%. Besides, the “Post-emergence efficacy against Poa annua (POAAN)” value in [28] came to 100%. Moreover, the results for the “Post-emergence efficacy against Amaranthus retroflexus (AMARE)” value in [29] and in [1] were 100% and 90%, respectively. Further, in assay [30], the “Post-emergence efficacy against Lolium rigidum (LOLRI)” value came to 90%. For the same compound, the “Post-emergence efficacy against Bassia scoparia (KCHSC)” value in [31] is reported as 100%. Moreover, the “Post-emergence action against Stellaria media (STEME)” value in assay [32] is given as 100%. Moreover, the results for the “Post-emergence efficacy against Veronica persica (VERPE)” value in [33] and in assay [5] were 100% and 90%, respectively. In addition, the “Post-emergence efficacy against Abutilon theophrasti (ABUTH)” value in [34] was 90%. For the same compound, in assay [3], the “Post-emergence efficacy against Polygonum convolvulus (POLCO)” value is reported as 80%. For the same compound, in [11], the “Pre-emergence efficacy against Polygonum convolvulus (POLCO)” value was 90%. Further, the “Pre-emergence efficacy against Viola tricolor (VIOTR)” value in assay [12] is given as 80%.

The record behind these values is patent publication US20230303549A1, “SUBSTITUTED HETEROARYLOXYPYRIDINES, THE SALTS THEREOF AND THEIR USE AS HERBICIDAL AGENTS” (Bayer Aktiengesellschaft, priority 2020, published 2023).
